The conditions of series [1]: cited from earlier work. The source says: Micafungin is metabolized in the liver by catechol O-methyltransferase, arylsulfatase, and hydroxylation. Only 1% of the unchanged drug is excreted through the kidneys. […] The elimination pharmacokinetics of micafungin in patients with advanced hepatic insufficiency are not fully understood. […] We described the plasma concentration-time curve of micafungin using a two-compartment model, similar to that described in previous studies. […] Overall, there were no differences in the ...

The next series can be described thus: clinical. The format is in vivo, human (adult patients). Particulars: population estimate; for clearance: both sexes, human, in vivo, iv, two-compartment population model (Monolix 4.4), plasma HPLC-UV. Here is the method: This was a prospective pharmacokinetic study to compare adult patients with and without cancer. The study was conducted at King Saud University Medical City, a tertiary hospital. The study included male and female patients aged ≥ 18 years, who were admitted to the hospital and received a minimum of 2 micafungin doses based on empirical evidence or culture results. Patients who were pregnant and those with a micafungin allergy were excluded. The study protocol was approved by the Institutional Review Board of King Saud University Medical City (E-18-3373), and written informed consent was obtained from all patients before their inclusion in the study.
All patients were treated with a 100–150 mg daily dose of micafungin for empirical use or confirmed fungal infection. Micafungin was diluted in 100 mL isotonic saline solution and infused over 60 min. Blood samples were drawn at 1, 2, 4, 6, 8, 12, and 24 h from the initiation of the micafungin dose. All blood samples were centrifuged, and plasma samples were stored at −80 °C until analysis.
Plasma micafungin concentrations were determined using a high-performance liquid chromatography (HPLC) method with a UV detection system, with slight modification. Plasma samples were separated from whole blood, acidified with phosphoric acid, precipitated with acetonitrile, and centrifuged prior to dilution with buffer and injection into an HPLC system. Anidulafungin served as I.S. for micafungin. The method was fully validated and achieved using an isocratic Prominence Shimadzu HPLC system (Shimadzu, Columbia, MD, USA), which comprised an autosampler (SIL-20AHT), a UV detector (Shimadzu UV SPD-20A), and a pump (LC-20AB) connected to a degasser (Dgu-20A3). The separation of micafungin was performed on a Phenomenex Luna C18 column (250 × 4.6 mm i.d., 5 µm; Phenomenex, CA). The mobile phase comprised 0.1% (w/w) ammonium acetate in water, with pH adjusted to 7.0 with 25% NH3 solution and acetonitrile (70%:30%); the flow rate was 1 mL/min, and micafungin was detected at 273 nm. Data acquisition was achieved using LC Solution chromatographic software version 1.22 SP1 (Shimadzu, Columbia, MD, USA).
Data from patients with and without cancer were comodeled using Monolix 4.4 software (Supplementary File S1). Monolix estimates pharmacokinetic parameters using the stochastic approximation expectation maximization algorithm. In the first step, we developed the base structural model for micafungin by fitting various compartmental models to plasma drug concentrations. The following criteria were followed to select between models: (a) a decrease in the minimum of the objective function value (log-likelihood value); (b) precision of the parameter estimation expressed as RSE (%) and calculated as the ratio between the standard error and final parameter estimate; (c) physiologic plausibility; and (d) GOF plots including observed and predicted concentrations, residuals plot, and visual predictive check.
A covariate model was developed in a stepwise fashion, with forward inclusion based on model selection criteria. First, we plotted the empirical Bayesian estimates vs. covariates to screen for potentially significant correlations. Next, we performed a stepwise regression analysis to test the significant covariates identified in step 1, using the −2 log-likelihood ratio test. Age, body weight, height, BMI, sex, serum creatinine, creatinine clearance, sequential organ failure assessment score, and levels of AST, alanine transaminase, total bilirubin, and albumin were tested as covariates.
GOF was assessed using the log-likelihood criterion during model building. Plots of model-based individual and population predictions vs. the observed concentrations were performed for model assessment. A predicted–corrected visual predictive check using 1000 simulations was constructed to study the performance of the final model. […]

[2] abbreviates: patients with cancer (n = 10), 100 mg/day i.v.
[3] abbreviates: patients without cancer (n = 9), 100-150 mg/day i.v.

Numbered stars: 1 amine (or outer) side, 2 acyl side, 3 side chain; on linkers, the order of the positions; unused ones are H or OH. Bridge positions count the residues as written; N and C are the ends. Square brackets hold non-standard residues; d marks the D form. Peptide text beside a SMILES is read from it. * marks the point of attachment. hTyr(3S-OH,4S-OH,3'-OSO3H) = N[C@H](C(=O)O)[C@H](O)[C@@H](O)c1ccc(O)c(OS(=O)(=O)O)c1; Orn(4R-OH,5R-OH) = O=C([C@H](C[C@@H](O)[C@@H](O)N[*:3])N[*:1])[*:2]; Pro(3S-OH,4S-Me) = C[C@H]1CN[C@H](C(=O)O)[C@H]1O; X1 = CCCCCOc1ccc(-c2cc(-c3ccc(C(=O)*)cc3)no2)cc1; Gln(3R-OH) = NC(=O)C[C@@H](O)[C@H](N)C(=O)O; Hyp = O=C(O)[C@@H]1C[C@@H](O)CN1

As usually defined, the clearance is a measure of how efficiently the substance is removed, as volume per time. In the case of `CCCCCOc1ccc(-c2cc(-c3ccc(C(=O)N[C@H]4C[C@@H](O)[C@@H](O)NC(=O)[C@@H]5[C@@H](O)[C@@H](C)CN5C(=O)[C@H]([C@H](O)CC(N)=O)NC(=O)[C@H]([C@H](O)[C@@H](O)c5ccc(O)c(OS(=O)(=O)O)c5)NC(=O)[C@@H]5C[C@@H](O)CN5C(=O)[C@H]([C@@H](C)O)NC4=O)cc3)no2)cc1` [micafungin] (X1-[Orn(4R-OH,5R-OH)]T[Hyp][hTyr(3S-OH,4S-OH,3'-OSO3H)][Gln(3R-OH)][Pro(3S-OH,4S-Me)]; lactam 1-C), in series [1] (adults), the terminal half-life entry was “approximately 15 h”. Besides, in series [1], the “unchanged drug excreted through the kidneys” value is reported as 1%. Also, the clearance was 20 mL/min in the series “clinical” (patients with cancer (n = 10), 100 mg/day i.v. infusion over 60 min) and 10 mL/min in “clinical” (patients without cancer (n = 9), 100-150 mg/day i.v. infusion over 60 min). Also, the results for the “Q (intercompartmental clearance)” value in “clinical” (setting [2]) and in the series “clinical” (setting [3]) were 0.144 L/h and 0.188 L/h, respectively. In addition, the “V1 (volume of the central compartment)” value is given as 10.7 L in the series “clinical” (setting [2]) and 12 L in the series “clinical” (setting [3]). Moreover, the entries for the “V2 (volume of the peripheral compartment)” value in the series “clinical” (setting [2]) and in “clinical” (setting [3]) were 3.5 L and 2.77 L, respectively.

The record behind these values is PMC8615109, “Assessment of Micafungin Dosage Regimens in Patients with Cancer Using Pharmacokinetic/Pharmacodynamic Modeling and Monte Carlo Simulation” (Antibiotics, 2021).
